Like-named read-outs stand apart in the source and are kept apart here.
Key:
[1] = Biodistribution study of [18F]B-23; details: mean ± SD, n = 3
Description: (§2) The biodistribution study was carried out in male Wistar rats (body weight 320-370 g) at 2 min, 10 min and 30 min post injection (p.i.) (n=3/time point). […] Blood and major organs were collected in tared tubes and weighed. The radioactivity in blood, organs and other body parts was measured using an automated gamma counter. The distribution of radioactivity in different parts of the body at different time points p.i. of the tracer was calculated and expressed as percentage of injected dose (% ID), and as standardized uptake values (SUV) for the selected organs. % ID is calculated as counts per minute (cpm) in organ/total cpm recovered. SUVs are calculated as (radioactivity in cpm in organ/weight of the organ in g)/(total counts recovered/body weight in g). For calculation of total radioactivity in blood, blood mass was assumed to be 7% of the body mass.

[2] = Plasma radiometabolite analysis of [18F]B-23; type: in vivo, rat; details: for recovered radioactivity present as intact tracer in plasma: n=1
Description: (§1) The metabolic stability of the tracer was studied in normal rats by determination of the relative amounts of parent tracer and radiometabolites in plasma and brain at 2 min and 10 min p.i. of the tracer. […] (n=1), blood was collected in lithium heparin containing tubes (4.5 mL LH PST tubes; BD vacutainer, BD, Franklin Lakes, USA) and stored on ice. Brain was dissected and rinsed with saline (decapitation was preferred since it was difficult to have the rat perfused already at 2 min p.i.). For the 10 min timepoint, rats (n=1) were injected with about 37 MBq of tracer and sacrificed at 10 min p.i by administering an overdose of Nembutal (CEVA Sante Animale, 200 mg/kg intraperitoneal). The rats were perfused by injection of saline into the left ventricle until the liver turned pale. During perfusion, blood was collected and stored on ice. Brain was isolated.
For the plasma radiometabolite analysis, the blood was centrifugated for 10 min at 3000 rpm to separate the plasma. A volume of about 0.1 mL of plasma sample was isolated and spiked with about 10 μL of authentic non-radioactive reference material (1 mg/mL) for identification. The plasma was then injected onto an HPLC system consisting of a Chromolith Performance column (C18, 3 mm×100 mm, Merck) that was eluted with mixtures of 0.05 M NaOAc pH 5.5 (solvent A) and acetonitrile (solvent B). The following method was used for the analysis: isocratic elution with 100% A for 4 min at a flow rate of 0.5 mL/min, then linear gradient to 90% B by 14 min at a flow rate of 1 mL/min, and isocratic elution with a mixture of 10% A and 90% B at a flow rate of 1 mL/min until 17 min. After passing through an in-line UV detector (254 nm) and over a 3 in. NaI(Tl) scintillation detector connected to a single channel analyzer (Gabi box, Raytest, Straubenhardt Germany), the HPLC eluate was collected per minute using an automatic fraction collector. The radioactivity in all fractions was measured using an automated gamma counter. The peak corresponding to the intact tracer eluted at ˜11 min. Polar radiometabolite(s) were eluting from 1 to 3 min. Slightly more polar radiometabolites (relatively to the polarity of the intact tracer) were eluting just before the intact tracer. Faster metabolisation is observed in plasma compared to brain. At 2 min p.i., about 70% of the recovered radioactivity was present as intact tracer. Two more polar radiometabolites (M1, M3) were observed of which one (M3) was closely eluting to the intact tracer. At 10 min p.i., the presence of a large amount of a third polar metabolite (M2, also closely eluting to the parent compound) was observed which accounted for about 60% of the recovered radioactivity. At 10 min p.i., only ˜20% of the recovered radioactivity was still present as intact tracer.

[3] = male, Wistar, rat, in vivo
Description: as §2

[4] = Brain radiometabolite analysis of [18F]B-23; type: in vivo, rat
Description: as §1
For the brain radiometabolite analysis, cerebrum and cerebellum were separated and homogenized in 3 mL and 2 mL of acetonitrile respectively, for about 3 min. A volume of 1 mL of this homogenate was diluted with an equal volume of water and 1 mL of the supernatant was filtered through a 0.22 μm filter (Millipore, Bedford, USA). About 0.5 mL of the filtrate was diluted with 0.1 mL of water and spiked with 10 μL of authentic reference material (1 mg/mL) for identification. A volume of 0.5 mL of the homogenate extracts were injected onto an HPLC system consisting of an analytical XBridge column (C18, 3.5 μm, 3 mm×100 mm, Waters) eluted with a mixture of 0.05 M sodium acetate (pH 5.5) and CH3CN (76:24 v/v) at a flow rate of 0.8 mL/min. The HPLC eluate was collected as 0.8-mL fractions (fraction collection per minute) after passing through the UV detector (254 nm), and radioactivity in the fractions was measured using an automated gamma counter. The peak corresponding to the intact tracer eluted around 10 min, the polar radiometabolite(s) around 5 min.

Cc1nc2ccc(CN3CCOCC3)cc2n2c(-c3c([18F])cccc3Cl)nnc12 [[^18F]B-23, 1-(2-Chloro-6-[^18F]fluorophenyl)-4-methyl-8-(morpholin-4-ylmethyl)[1,2,4]triazolo[4,3-a]quinoxaline]
SUV Blood ([1]; 2 min p.i.): 0.96 ± 0.05 | SUV Cerebellum ([1]; 2 min p.i.): 1.22 ± 0.23 | SUV Cortex ([1]; 2 min p.i.): 2.36 ± 0.48 | SUV Hippocampus ([1]; 2 min p.i.): 1.87 ± 0.22 | SUV Rest of cerebrum ([1]; 2 min p.i.): 2.63 ± 0.41 | SUV Striatum ([1]; 2 min p.i.): 4.36 ± 0.42 | SUV Blood ([1]; 10 min p.i.): 0.90 ± 0.08 | SUV Cerebellum ([1]; 10 min p.i.): 0.27 ± 0.02 | SUV Cortex ([1]; 10 min p.i.): 0.53 ± 0.02 | SUV Hippocampus ([1]; 10 min p.i.): 0.33 ± 0.04 | SUV Rest of cerebrum ([1]; 10 min p.i.): 0.57 ± 0.02 | SUV Striatum ([1]; 10 min p.i.): 1.77 ± 0.08 | SUV Blood ([1]; 30 min p.i.): 0.59 ± 0.08 | SUV Cerebellum ([1]; 30 min p.i.): 0.12 ± 0.04 | SUV Cortex ([1]; 30 min p.i.): 0.15 ± 0.04 | SUV Hippocampus ([1]; 30 min p.i.): 0.14 ± 0.04 | SUV Rest of cerebrum ([1]; 30 min p.i.): 0.22 ± 0.08 | SUV Striatum ([1]; 30 min p.i.): 0.61 ± 0.20 | apolar radiometabolites in plasma ([2]; 2 and 10 min p.i.): No apolar radiometabolites were detected | recovered radioactivity present as intact tracer in plasma ([2]; 2 min p.i.): about 70% | recovered radioactivity present as intact tracer in plasma ([2]; 10 min p.i.): ~20% | % of the ID in the cerebellum ([3]; 2 min): ~0.1% | % of the ID in the cerebrum ([3]; 2 min): ~1.0% | % of the injected dose present in the blood ([3]; 2 min): about 6.7% | total brain uptake of the tracer (% ID) ([3]; 2 min): ~1.2% | % ID in the brain ([3]; 10 min): 0.2% | % ID in the brain ([3]; 30 min): 0.1 % ID | % ID in the urine and the kidneys ([3]; 30 min): 19 % ID | % of ID present in the liver and intestines ([3]; 30 min): 49% | % of the injected dose present in the blood ([3]; 30 min): 4.1% | apolar radiometabolites in brain ([4]; 2 and 10 min p.i.): No apolar radiometabolites were detected | intact tracer in cerebrum and cerebellum ([4]; 2 min p.i., n=1): almost all of the recovered radioactivity in cerebrum and in cerebellum was present as intact tracer | % of intact tracer in cerebellum ([4]; 10 min p.i., n=1): 82%

— US10604523B2, “1-aryl-4-methyl-[1,2,4]triazolo[4,3-a]quinoxaline derivatives” (Janssen Pharmaceutica NV, priority 2011, dated 2020)
